These results are taken from the Deep4Chem optical property database.

The nature of the data set: solvent given as SMILES.

For the molecule `O=Cc1ccc(N(c2ccc(C=O)cc2)c2ccc(-c3ccc4c(c3)C(=O)c3ccccc3C4=O)cc2)cc1`, the absorption maximum turned out to be 374 nm (in C1CCOC1); 368 nm (in CCCCCC); 371 nm (in CCOC(C)=O); 369 nm (in CCOCC); 376 nm (in Cc1ccccc1); 376 nm (in ClC(Cl)(Cl)Cl). Moreover, the absorption maximum (in ClCCl) came out at 379 nm.

Regarding `CC(=O)c1nc(-c2ccc(C)cc2)oc1C`, the absorption maximum is given as 271 nm (in CC#N); 272 nm (in CCCCCC); 271 nm (in CCO); 273 nm (in CCOC(C)=O); 271 nm (in CCOCC); 271 nm (in ClCCl).

On to `CC(C)(C)NC(=O)c1ccc(C(=O)NC(C)(C)C)c2c1c1c3ccc(Cl)cc3c3cc(Cl)ccc3c1c1c3ccc(Cl)cc3c3cc(Cl)ccc3c21`, for which the absorption maximum (in ClCCl) is recorded as 395 nm.

Molecule `CCCC1(CCC)c2cc(-c3ccc(-c4ccc(OC)cc4)o3)ccc2-c2ccc(-c3ccc(-c4ccc(OC)cc4)o3)cc21` gave an absorption maximum (in C1CCCCC1) of 410 nm.

Consider `O=[N+]([O-])c1ccco1`, for which the absorption maximum was determined as 302 nm (in CO) and 313 nm (in O).

Turning to `Cc1cc(O)c(C(=O)/C=C/c2ccc(Cl)cc2Cl)c(=O)o1`, the absorption maximum by setting is: (in CC#N) 349 nm; (in ClCCl) 350 nm.

In turn, `O=C1OC(c2ccccc2)=C/C1=C\c1ccc([N+](=O)[O-])cc1` registered an absorption maximum (in C1COCCO1) of 416 nm.

On to `Cc1cc(C)cc(C)c1`, for which, for the setting “in C1CCCCC1”, the absorption maximum came out at 261.57 nm.

`CC(=O)[B-]1(C(C)=O)OC(c2ccc3ccccc3c2)=CC(c2ccc3ccccc3c2)=[O+]1`: the absorption maximum is reported as 420 nm (in CC#N) and 415 nm (in ClC(Cl)(Cl)Cl).

For `COc1ccc(-c2cc3c(ccc4sc5ccc6sc(-c7ccc(C#N)cc7)cc6c5c43)s2)cc1`, where the note is “in ClCCl”, the absorption maximum was found to be 383 nm.

Turning to `O=C1C=CC2=Cc3ccccc3B(O)N12`, the absorption maximum reads like this: (in CC#N) 360 nm; (in CO) 364 nm; (in CS(C)=O) 364 nm; (in ClC(Cl)Cl) 365 nm.

With `CC(=O)c1ccc2ccc3cccc4ccc1c2c34`, the absorption maximum reads like this: (in C1CCOC1) 384 nm; (in CC#N) 382 nm; (in CCCCCC) 384 nm; (in CCO) 383 nm; (in CN(C)C=O) 384 nm; (in CO) 385 nm. Also, the absorption maximum is listed as 387 nm (in Cc1ccccc1) and 385 nm (in ClCCl).

As to `CCC1=C(C)C2=Cc3cc4c(cc3B(O)N2C1=O)OCO4`, the absorption maximum reads like this: (in CC#N) 383 nm; (in CO) 381 nm; (in CS(C)=O) 384 nm; (in ClC(Cl)Cl) 389 nm.

`COc1ccc2c3c(c4ccc(OC)cc4c2c1)C(C)(C)c1sccc1-3` had an absorption maximum (in C1CCCCC1) of 391 nm.

As for `COCCOCCOCCOc1ccc(/C=C/C2=[N+]3C(=C(c4cc(OC)cc(OC)c4)c4c(C)c(I)c(/C=C/c5ccc(OCCOCCOCCOC)cc5)n4[B-]3(F)F)C(C)=C2I)cc1`, the absorption maximum is listed as 664 nm (in C1CCOC1), 666 nm (in CS(C)=O) and 664 nm (in ClCCl).

In turn, `C(=C\c1cc(/C=C/c2ccccc2)nc(/C=C/c2ccccc2)n1)/c1ccccc1` had an absorption maximum (in ClCCl) of 312 nm.

On to `C(#Cc1ccccc1)C(C#Cc1ccccc1)=Cc1c2ccccc2c(C=C(C#Cc2ccccc2)C#Cc2ccccc2)c2ccccc12`, for which, under “in ClC(Cl)Cl”, the absorption maximum is listed as 432 nm.

Take `CC(C)(C)c1ccc2c(c1)Sc1cc(C(C)(C)C)ccc1N2c1ccc2c(ccc3nc4ccc5cc(N6c7ccc(C(C)(C)C)cc7Sc7cc(C(C)(C)C)ccc76)ccc5c4nc32)c1`: the absorption maximum is on record as 451 nm (in C1CCCCC1), 452 nm (in C1CCOC1) and 451 nm (in Cc1ccccc1).

With `O=C1/C(=C2\Nc3cc4ccc5cccc6ccc(c3C2=O)c4c56)Nc2cc3ccc4cccc5ccc(c21)c3c45`, where the note is “in C1CCOC1”, the absorption maximum is listed as 687 nm.

Regarding `CCc1c(C)[nH]c(C2=[N+]3C(=Cc4c(C)c(CC)c(/C=C/c5ccc(N(C)C)cc5)n4[B-]3(F)F)c3ccccc32)c1C`, the absorption maximum is, setting by setting: (in C1CCOC1) 720 nm; (in CC#N) 713 nm; (in CCCCCC) 719 nm; (in CO) 712 nm; (in Cc1ccccc1) 730 nm; (in ClCCl) 725 nm.

Take `Cc1ccc(C2=C3C=CC(C#Cc4ccccc4)=[N+]3[B-](F)(F)n3c(Cl)ccc32)cc1`: the absorption maximum by setting is: (in C1CCCCC1) 564 nm; (in C1CCOC1) 560 nm; (in C1COCCO1) 562 nm; (in CCOC(C)=O) 558 nm; (in CO) 556 nm; (in Cc1ccccc1) 566 nm. This molecule had an absorption maximum (in ClC(Cl)Cl) of 564 nm.

The molecule `Cc1cccc(C2=Cc3ccc4ccccc4[n+]3[B-](F)(F)O2)c1` displayed an absorption maximum (in ClC(Cl)Cl) of 429 nm.

As to `c1ccc(-c2ccc(-c3ccccc3)s2)cc1`, the absorption maximum (in C1CCOC1) worked out at 341 nm.

Regarding `COC(=O)c1ccc(/C=C2\C=C(c3ccc(C#N)cc3)N(CC(C)C)C2=O)cc1`, the absorption maximum (in C1COCCO1) is on record as 438 nm.

In turn, `COc1ccc(-c2cc3c(o2)=CC2=C(C(F)(F)F)c4cc5oc(-c6ccc(OC)cc6)cc5n4[B-](F)(F)[N+]=32)cc1` registered an absorption maximum (in ClC(Cl)Cl) of 723 nm.

As for `F[B-]1(F)OC(c2ccccc2)=CC(c2ccccc2)=[O+]1`, the absorption maximum was determined as 376 nm (in CC#N) and 375 nm (in ClC(Cl)(Cl)Cl).

`CCCCCCn1c2ccccc2c2cc(-c3ccc(-c4cc(-c5ccccn5)nc(-c5ccccn5)c4)cc3)ccc21` returned an absorption maximum (in ClCCl) of 296 nm.

Where the note is “in CC#N”, `COc1cc2cc(/C=C/c3ccc(/C=C(\C#N)C(=O)O)cc3)c(=O)oc2cc1OC` yielded an absorption maximum of 400 nm.

With `CN(C)c1ccc2nc(-c3ccccc3)sc2c1`, the absorption maximum runs as follows: (in C1CCCCC1) 357 nm; (in CC#N) 362 nm; (in CC(C)O) 361 nm; (in CO) 363 nm; (in CS(C)=O) 369 nm; (in ClC(Cl)Cl) 362 nm. Moreover, the absorption maximum (in c1ccccc1) was found to be 364 nm.

Turning to `CN1/C(=C/C=C(/C=C/C2=[N+](C)c3ccccc3C2(C)C)c2cc(F)cc(F)c2)C(C)(C)c2ccccc21`, the absorption maximum came out at 636 nm (in CCO), 633 nm (in CO), 644 nm (in CS(C)=O) and 631 nm (in O).

`Cc1ccc(-c2cc(/C=C/c3ccc(N(c4ccccc4)c4ccccc4)cc3)c(C#N)c(N3CCCCC3)c2)cc1` displayed an absorption maximum (in CS(C)=O) of 401 nm.

For `CCCCCCn1c2ccccc2c2cc3c4cc5c6ccccc6n(CCCCCC)c5cc4c4cc5c(C)cc(=O)oc5cc4c3cc21`, for the setting “in ClC(Cl)Cl”, the absorption maximum was 393 nm.

For `c1ccc(-c2cc(-c3ccccc3)cc(-c3ccc4c(c3)C3(c5ccccc5-4)c4ccccc4-c4c3c3c5ccccc5c(-c5cc(-c6ccccc6)cc(-c6ccccc6)c5)cc3c3ccccc43)c2)cc1` (configuration not stated), the absorption maximum (in C1CCOC1) is given as 387 nm.

`C[Si]1(C)c2ccc(-c3cccs3)cc2C=Cc2cc(-c3cccs3)ccc21` came in with an absorption maximum (in ClCCl) of 354 nm.

`Cc1ccc2c(c1)C(C)(C)c1cc(C)ccc1N2c1ccc2c(c1)C(C)(C)c1cc(N3c4ccc(C)cc4C(C)(C)c4cc(C)ccc43)ccc1S2(=O)=O` returned an absorption maximum (in ClCCl) of 370 nm.

For the molecule `CCCCn1c2ccccc2c2cc(C#Cc3ccc4ccc5cccc6ccc3c4c56)ccc21`, for the setting “in ClCCl”, the absorption maximum is given as 402 nm.

Regarding `CC(C)(C)c1ccc(-c2nc(-c3ccc(-n4c5ccccc5c5c6oc7ccccc7c6ccc54)cc3)nc(-c3ccc(C(C)(C)C)cc3)n2)cc1`, the absorption maximum (in C1CCOC1) came to 354.46 nm.

Turning to `CCCCCCCCCCCCc1sc(CCCCCC)c2c3cc(CCCCCC)sc3c3sc(CCCCCC)cc3c12`, the absorption maximum (in ClC(Cl)Cl) is 373 nm.

`CC(O)CC1=N/C(=C\c2cccc(N(C)C)c2)C(=O)N1C` (configuration not stated): the absorption maximum was determined as 356 nm (in C1CCOC1), 355 nm (in CC#N) and 352 nm (in CCCCCC).

For `CCC1=C(C)C2=Cc3cccn3[B-](F)(F)[N+]2=C1C`, the absorption maximum was 512.5 nm (in C1CCCCC1); 503.5 nm (in CC(C)=O); 505.5 nm (in CCO); 505 nm (in CCOC(C)=O); 504.5 nm (in CO); 494.5 nm (in OCC(F)(F)F).

As to `Cc1cc(C(F)(F)F)nc2c1ccc1nc(-c3ccc(Cl)cc3)cn12`, the absorption maximum was 362.6 nm (in CC#N); 376.5 nm (in CCCCCC); 368.6 nm (in CCCCOC(C)=O); 368.2 nm (in CCOC(C)=O); 359.6 nm (in CO); 375.2 nm (in Cc1ccccc1). For the same molecule, the absorption maximum (in ClC(Cl)Cl) is given as 369.2 nm, the absorption maximum (in ClCCl) is 366.6 nm and the absorption maximum (in c1ccccc1) is listed as 375 nm.

As for `O=c1ccc2cc3c(cc2o1)OCC3`, the absorption maximum is recorded as 333 nm (in CC(C)O); 333 nm (in CCO); 330 nm (in CCOCC); 333 nm (in CO); 336 nm (in O).

For the molecule `N#Cc1ccc(N(c2ccc(C#N)cc2)c2ccc3c4cccc5c(N(c6ccc(C#N)cc6)c6ccc(C#N)cc6)ccc(c6cccc2c63)c54)cc1`, the absorption maximum was 446 nm (in C1CCCCC1); 452 nm (in C1CCOC1); 446 nm (in CC#N); 451 nm (in Cc1ccccc1); 450 nm (in ClCCl).

`Cc1cc(Br)cn(Cn2cccc(C)c2=O)c1=N` gave an absorption maximum (in CC(=O)O) of 310 nm.

On to `CCCCCn1c2ccccc2c(=O)c2ccccc21`, for which the absorption maximum was 403 nm (in CS(C)=O) and 394 nm (in O).

For `C[Si](C)(C)C#CC#Cc1ccc2c3cccc4cccc(c5cccc1c52)c43`, the absorption maximum (in C1CCCCC1) came out at 470 nm.
